These results are taken from patent US20060069132A1, “Azolecarboxamide herbicides” (priority 2004, published 2006).

One assay deals with large crabgrass. The experiment in a line: Test A pre-/postemergence herbicide test. As to conditions: for pest or weed control at 125 g/ha / pest or weed control at 500 g/ha: Digitaria sanguinalis, 240 h, read-out: Crabgrass, Large plant response rating; for pest or weed control at 125 g/ha: 125 g ai/ha. The assay is classed as in vivo, Digitaria sanguinalis. In short, it runs like this:
(§1)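 Pre: seeded sandy loam, directed soil spray, compound in non-phytotoxic solvent + surfactant. Post: 1–2-leaf plants (2–10 cm), sprayed to runoff. Greenhouse ~10 d; visual injury vs untreated, 0–100 scale.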

The next assay deals with giant foxtail. The experiment in a line: Test A pre-/postemergence herbicide test. The assay is classed as in vivo, Setaria faberi. As to conditions: for pest or weed control at 125 g/ha / pest or weed control at 500 g/ha: Setaria faberi, 240 h, read-out: Foxtail, Giant plant response rating; for pest or weed control at 125 g/ha: 125 g ai/ha. In short, it runs like this: as §1

The test system of a further assay is morningglory. The experiment in a line: Test A pre-/postemergence herbicide test. As to conditions: for pest or weed control at 125 g/ha / pest or weed control at 500 g/ha: Ipomoea, 240 h, read-out: Morningglory plant response rating; for pest or weed control at 125 g/ha: 125 g ai/ha. The assay is classed as in vivo, Ipomoea spp. The method in brief:
as §1

In a further assay the test system is lambsquarters. The experiment in a line: Test B pre-/postemergence herbicide test. It counts as in vivo, Chenopodium album. As to conditions: for Plant response rating, Lambsquarters / Lambsquarters plant response rating (0 to 100 scale): preemergence. In short, it runs like this:
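Greenhouse pot assay with simultaneous preemergence (treated seed) and postemergence (2–18 cm seedlings) applications of surfactant-containing, non-phytotoxic solvent formulations. Response scored visually 13–15 days later on a 0–100 scale, 100 meaning complete control.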

Assay [1] relates to smallflower umbrella sedge. The experiment in a line: Test C flooded paddy test. The assay is classed as in vivo, Cyperus difformis.
The mark [2] stands for this setting: Postemergence, 500 g ai/ha, 0 to 100 scale, 0 no effect, 100 complete control.
Setting [3] is: Postemergence, 2000 g ai/ha, 0 to 100 scale, 0 no effect, 100 complete control.
[4] abbreviates: Preemergence, 500 g ai/ha, visual rating, 0 to 100 scale (0 no effect, 100 complete control).
The mark [5] stands for this setting: Preemergence, 2000 g ai/ha, visual rating, 0 to 100 scale (0 no effect, 100 complete control).
Where [6] appears, read: postemergence, 125 g ai/ha, visual rating, scale 0 (no effect) to 100 (complete control).
The mark [7] stands for this setting: 125 g ai/ha, scale 0 to 100 (0 no effect, 100 complete control).
[8] abbreviates: 250 g ai/ha, scale of 0 to 100, 0 is no effect, 100 is complete control.
Where [9] appears, read: 500 g ai/ha, visual rating after 12 to 14 days, scale 0 to 100 (0 no effect, 100 complete control).
[10] abbreviates: Chenopodium album, post-emergence, 336 h, postemergence, 125 g ai/ha, visual rating, scale 0 (no effect) to 100 (complete control), read-out: Lambsquarters plant response rating.
The mark [11] stands for this setting: Chenopodium album, pre-emergence, 336 h, 125 g ai/ha, 0 = no effect, 100 = complete control, read-out: Lambsquarters plant response rating (0 to 100 scale).
[12] abbreviates: preemergence, 500 g ai/ha, visual injury, 0 to 100 scale (0 no effect, 100 complete control).
Where [13] appears, read: 125 g ai/ha, 0 = no effect, 100 = complete control.
The mark [14] stands for this setting: 500 g ai/ha, visual rating, 0 = no effect, 100 = complete control.
Where [15] appears, read: postemergence, 500 g ai/ha, scale 0 to 100, 0 is no effect, 100 is complete control.
The mark [16] stands for this setting: 125 g ai/ha, visual rating, scale 0 (no effect) to 100 (complete control), postemergence.
The mark [17] stands for this setting: post-emergence, Postemergence, 0 to 100 scale, 0 no effect, 100 complete control.
Where [18] appears, read: post-emergence, Postemergence, 500 g ai/ha, 0 to 100 scale, 0 no effect, 100 complete control.
Setting [19] is: pre-emergence, preemergence, visual injury, 0 to 100 scale (0 no effect, 100 complete control).
The mark [20] stands for this setting: pre-emergence, preemergence, 500 g ai/ha, visual injury, 0 to 100 scale (0 no effect, 100 complete control).

Structures are written as SMILES. Where two headings read alike, the source gives them in different places.

Turning to `C=Cn1nc(C(C)(C)C)cc1C(=O)Nc1cccc(C(C)=O)c1` [Compound 127], the figures for the “Crabgrass, Large plant response rating” value in the assay with large crabgrass (setting [2]), in the assay on large crabgrass (setting [4]) and in the assay on large crabgrass (setting [5]) were 15, 75 and 85, respectively. Further, the “Plant response rating, Crabgrass, Large” value in the assay on large crabgrass (setting [3]) is 35. Besides, the “Foxtail, Giant plant response rating” value came to 30 with giant foxtail (setting [2]), 20 in the assay on giant foxtail (setting [4]) and 35 in the assay with giant foxtail (setting [5]). In the assay with giant foxtail (setting [3]), the “Plant response rating, Foxtail, Giant” value worked out at 30. Moreover, the “Morningglory plant response rating” value turned out to be 10 in the assay with morningglory (setting [2]), 30 with morningglory (setting [4]) and 30 in the assay with morningglory (setting [5]). For the same molecule, the “Plant response rating, Morningglory” value with morningglory (setting [3]) is recorded as 20. The “Plant response rating, Lambsquarters” value with lambsquarters (500 g ai/ha, visual rating 0-100, 0 no effect, 100 complete control) is given as 70; with lambsquarters (125 g ai/ha, 0 to 100 scale, 0 is no effect, 100 is complete control) it was 0. In addition, the “Lambsquarters plant response rating” value with lambsquarters (setting [6]) turned out to be 70; in the assay on lambsquarters (postemergence, 500 g ai/ha, visual rating, scale 0 (no effect) to 100 (complete control)), 80. The “Sedge, Umbrella plant response rating” value is recorded as 80 in assay [1] (62 g ai/ha, scale 0 to 100 (0 no effect, 100 complete control)); 80 in assay [1] (setting [7]); 80 in assay [1] (setting [8]). Further, in assay [1] (setting [9]), the “Plant response rating, Sedge, Umbrella” value is reported as 85.
Regarding `CCc1cn(C(C)(C)C)nc1C(=O)Nc1cccc(C(=O)N(CC)CC)c1` [Compound 168, N-[3-[(diethylamino)carbonyl]phenyl]-1-(1,1-dimethylethyl)-4-ethyl-1H-pyrazole-3-carboxamide], the pest or weed control at 31 g/ha in the assay on lambsquarters (Chenopodium album, post-emergence, 336 h, postemergence, 31 g ai/ha, scale 0 to 100, read-out: Lambsquarters plant response rating) came to 50%. Moreover, the pest or weed control at 125 g/ha in the assay on lambsquarters (setting [10]) stood at 70%; with lambsquarters (setting [11]), 90%.
`CCn1nc(C(C)(C)C)c(F)c1C(=O)Nc1cc(C(=O)N(C)C)ccc1F` [Compound 276, N-[5-[(dimethylamino)carbonyl]-2-fluorophenyl]-3-(1,1-dimethylethyl)-1-ethyl-4-fluoro-1H-pyrazole-5-carboxamide]: the pest or weed control at 125 g/ha in the assay on lambsquarters (setting [10]) was determined as 20%; in the assay on lambsquarters (setting [11]), 40%; in assay [1] (Cyperus difformis, 125 g ai/ha, scale 0 to 100 (0 no effect, 100 complete control), read-out: Sedge, Umbrella plant response rating), 75%. In addition, the pest or weed control at 500 g/ha in the assay on lambsquarters (Chenopodium album, post-emergence, 336 h, postemergence, 500 g ai/ha, scale 0 to 100, 0 is no effect, 100 is complete control, read-out: Lambsquarters plant response rating) is 60%; in the assay on lambsquarters (Chenopodium album, pre-emergence, 336 h, 500 g ai/ha, visual rating, 0 = no effect, 100 = complete control, read-out: Plant response rating, Lambsquarters), 100%; in assay [1] (Cyperus difformis, 500 g ai/ha, visual rating after 12 to 14 days, scale 0 to 100 (0 no effect, 100 complete control), read-out: Plant response rating, Sedge, Umbrella), 85%. For the same molecule, the pest or weed control at 62 g/ha in assay [1] (Cyperus difformis, 62 g ai/ha, scale 0 to 100, read-out: Sedge, Umbrella plant response rating) worked out at 45%. Further, the pest or weed control at 250 g/ha in assay [1] (Cyperus difformis, 250 g ai/ha, scale of 0 to 100, 0 is no effect, 100 is complete control, read-out: Sedge, Umbrella plant response rating) worked out at 80%.
On to `C=CCN(C)C(=O)c1cccc(NC(=O)c2cc(C(C)(C)C)nn2CC)c1` [Compound 285], for which the “Crabgrass, Large plant response rating” value in the assay with large crabgrass (setting [2]) was 15; in the assay on large crabgrass (setting [5]), 85; with large crabgrass (setting [12]), 60. Besides, the “Plant response rating, Crabgrass, Large” value in the assay on large crabgrass (setting [3]) worked out at 35. For the same molecule, the “Foxtail, Giant plant response rating” value amounted to 25 with giant foxtail (setting [2]), 90 in the assay with giant foxtail (setting [5]) and 60 in the assay on giant foxtail (setting [12]). In the assay on giant foxtail (setting [3]), the “Plant response rating, Foxtail, Giant” value is recorded as 55. In addition, the “Morningglory plant response rating” value with morningglory (setting [2]) is recorded as 40; in the assay on morningglory (setting [5]), 45; in the assay with morningglory (setting [12]) it was 25. The “Plant response rating, Morningglory” value in the assay on morningglory (setting [3]) was 50. The “Lambsquarters plant response rating (0 to 100 scale)” value with lambsquarters (setting [13]) came to 100. In the assay on lambsquarters (setting [14]), the “Plant response rating, Lambsquarters” value is 100. Moreover, the entries for the “Lambsquarters plant response rating” value in the assay on lambsquarters (setting [6]) and with lambsquarters (setting [15]) were 40 and 70, respectively. Further, the “Sedge, Umbrella plant response rating” value was determined as 25 in assay [1] (62 g ai/ha, scale 0 to 100); 35 in assay [1] (setting [7]); 50 in assay [1] (setting [8]). In addition, in assay [1] (setting [9]), the “Plant response rating, Sedge, Umbrella” value came out at 65.
In the case of `CCOC(=O)c1cccc(NC(=O)c2cc(C(C)(C)C)nn2C)n1` [Compound 313], the “Crabgrass, Large plant response rating” value is reported as 70 in the assay with large crabgrass (setting [2]), 95 in the assay on large crabgrass (setting [5]) and 85 in the assay with large crabgrass (setting [12]). Also, the “Plant response rating, Crabgrass, Large” value in the assay with large crabgrass (setting [3]) amounted to 100. In addition, the “Foxtail, Giant plant response rating” value is on record as 70 in the assay on giant foxtail (setting [2]), 90 in the assay with giant foxtail (setting [5]) and 75 with giant foxtail (setting [12]). In the assay on giant foxtail (setting [3]), the “Plant response rating, Foxtail, Giant” value was determined as 80. The “Morningglory plant response rating” value with morningglory (setting [2]) is listed as 30; with morningglory (setting [5]) it was 55; in the assay with morningglory (setting [12]), 20. In the assay with morningglory (setting [3]), the “Plant response rating, Morningglory” value was 55. Moreover, the “Lambsquarters plant response rating (0 to 100 scale)” value in the assay with lambsquarters (setting [13]) was 100. Besides, the figures for the “Lambsquarters plant response rating” value with lambsquarters (setting [16]) and in the assay on lambsquarters (setting [15]) were 60 and 90, respectively. Further, in the assay with lambsquarters (setting [14]), the “Plant response rating, Lambsquarters” value worked out at 100. Further, the “Sedge, Umbrella plant response rating” value worked out at 0 in assay [1] (16 g ai/ha, scale 0 to 100); 0 in assay [1] (31 g ai/ha, scale 0 to 100); 30 in assay [1] (62 g ai/ha, scale 0 to 100); 70 in assay [1] (setting [7]).
As for `CCNC(=O)c1ccc(F)c(NC(=O)c2c3c(nn2CC)C(C)(C)CC3)c1` [Compound 353], the “Lambsquarters plant response rating” value with lambsquarters (setting [16]) is 20; in the assay on lambsquarters (setting [15]) it was 40. Moreover, the “Sedge, Umbrella plant response rating” value is 0 in assay [1] (62 g ai/ha, scale 0 to 100); 0 in assay [1] (setting [7]); 50 in assay [1] (setting [8]). Besides, in assay [1] (setting [9]), the “Plant response rating, Sedge, Umbrella” value was found to be 50.
Regarding `CCNC(=O)c1cccc(NC(=O)c2nc(C(C)(C)C)nn2CC)c1` [Compound 446, 3-(1,1-dimethylethyl)-1-ethyl-N-[3-[(ethylamino)carbonyl]phenyl]-1H-1,2,4-triazole-5-carboxamide], the pest or weed control at 125 g/ha stood at 45% with large crabgrass (setting [17]); 10% with large crabgrass (setting [19]); 75% in the assay with giant foxtail (setting [17]); 70% in the assay with giant foxtail (setting [19]); 10% with morningglory (setting [17]); 10% in the assay with morningglory (setting [19]). Moreover, the pest or weed control at 500 g/ha with large crabgrass (setting [18]) stood at 65%; in the assay with large crabgrass (setting [20]), 40%; in the assay with giant foxtail (setting [18]) it was 90%; in the assay on giant foxtail (setting [20]), 95%; in the assay with morningglory (setting [18]), 40%; in the assay with morningglory (setting [20]), 15%.
